Experimental data as given in US20260259169A1, “BETA-LACTAMASE SUBSTRATE COMPOUNDS AND ELECTROCHEMICAL DETECTION METHODS USING THEM” (priority 2023, published 2026).

Key:
[1] = tested on: bacteria strains that produce NDM; assay: Amperometric detection in blood culture; format: cell-based; conditions: CF3 6.0 mM, HMRZ-86 1.2 mM
Protocol: (§1) The possibility of the beta-lactamase substrate compounds to detect bacteria strains producing different beta-lactamases was tested for the reference HMRZ-86 of example 1 (at 1.2 mM) and the beta-lactamase substrate compound with R being 2-nitro-4-cyano of Example 1 (at 2.4 mM). […] Consequently, amperometric voltammetry of the negative control with ATCC should give an oxidation current of 0 nA for the measurement to be valid.
(§2) The beta-lactamase with group β being CF3 (6.0 mM), as well as the reference HMRZ-86 (1.2 mM) were also tested with blood cultures comprising bacteria strains producing the carbapenemase KPC type, the metallo-beta-lactamase VIM type and the metallo-beta-lactamase NDM type, as well as a blood culture comprising no bacteria strains producing beta-lactamases (negative control ATCC).

[2] = tested on: bacteria strains that produce VIM type; assay: Amperometric detection in blood culture; format: cell-based; conditions: CF3 6.0 mM, HMRZ-86 1.2 mM
Protocol: as §1, §2

[3] = NMR stability study in relation to a dimethylformamide (DMF) reference; format: physicochemical; conditions: for degradation: DMF reference
Protocol: More particularly, when the degradation is determined by means of NMR measurements, a first sample comprising the beta-lactamase substrate compound according to the present disclosure and a second sample comprising the reference, e.g. DMF, are heated or cooled to a predefined temperature, after which the NMR measurement is performed on both samples (measurement at time=0). The same measurement is repeated on the samples after a predefined time (time=x), while their temperature is kept constant at the predefined temperature from time=0 to time=x. The difference of the integration of NMR measurement signals of both samples is determined by comparing between time=0 and time=x, thereby allowing to define the degree (percentage) of degradation of the beta-lactamase substrate compound at time=x.
The stability of the beta-lactamase substrate compounds over time at different temperatures was tested the reference HMRZ-86 of example 1 (at 1.2 mM) and the beta-lactamase substrate compound with R being 2-nitro-4-cyano of Example 1 (at 2.4 mM).
The stability was tested by a NMR stability study. The degradation was measured by measuring the evolution of the integration of NMR measurement signals of the molecule in relation to a dimethylformamide (DMF) reference. The stability of the beta-lactamase substrate compound is expressed by the percentage of degradation in function of time.
The stability of all 3 beta-lactamase substrate compounds (R being 4-cyanophenyl, group β being H, CH3 and CF3, respectively), as well as the beta-lactamase having the same group R and a group β according to formula II was tested at 20° C. in DMF as reference.

IMP-3 = assay: Reactivity with recombinant enzyme, amperometric; format: biochemical; conditions: class B metallo-beta-lactamase, protein; CF3 compound 2.4 mM, HMRZ-86 1.2 mM; 10 minutes at 37° C.
OXA-163 = conditions: class D carbapenemase, protein; CF3 compound 2.4 mM, HMRZ-86 1.2 mM; 10 minutes at 37° C.
CTX-M-15 = CTX-M-15 (Escherichia coli, UniProt Q9EXV5); assay: Reactivity with recombinant enzyme, amperometric; format: biochemical; conditions: class A ESBL, protein; CF3 compound 2.4 mM, HMRZ-86 1.2 mM; 10 minutes at 37° C.
KPC-33 = KPC-33 (Klebsiella pneumoniae, UniProt Q9F663, D178Y); assay: Reactivity with recombinant enzyme, amperometric; format: biochemical; conditions: class A carbapenemase, protein; CF3 compound 2.4 mM, HMRZ-86 1.2 mM; 10 minutes at 37° C.
OXA-40 = assay: Reactivity with recombinant enzyme, amperometric; format: biochemical; conditions: class D carbapenemase, protein; CF3 compound 2.4 mM, HMRZ-86 1.2 mM; 10 minutes at 37° C.
OXA-213 = assay: Reactivity with recombinant enzyme, amperometric; format: biochemical; conditions: class D carbapenemase, protein; CF3 compound 2.4 mM, HMRZ-86 1.2 mM; 10 minutes at 37° C.
VIM-5 = assay: Reactivity with recombinant enzyme, amperometric; format: biochemical; conditions: class B metallo-beta-lactamase, protein; CF3 compound 2.4 mM, HMRZ-86 1.2 mM; 10 minutes at 37° C.
CTX-M-25 = CTX-M-25 (Escherichia coli, UniProt Q8KSA6); assay: Reactivity with recombinant enzyme, amperometric; format: biochemical; conditions: class A ESBL, protein; CF3 compound 2.4 mM, HMRZ-86 1.2 mM; 10 minutes at 37° C.
IMP-31 = assay: Reactivity with recombinant enzyme, amperometric; format: biochemical; conditions: class B metallo-beta-lactamase, protein; CF3 compound 2.4 mM, HMRZ-86 1.2 mM; 10 minutes at 37° C.
[4] = tested on: AmpC positive clinical strains; assay: Reactivity with AmpC positive clinical strains, amperometric; format: cell-based, 11 different species; conditions: 30 strains, colonies in TPTZ buffer, 10 minutes at 37° C.
Protocol: The reactivities of HMRZ-86 and the CF3 (β)/4-cyanophenyl (R) [formula (I)] compounds for enzymes from Ambler classes C (AmpC cephalosporinases) were analyzed with AmpC positive clinical strains previously characterized by sequencing. These strains correspond to 11 different species, 24 different enzymes and 2 mechanisms of enzyme production [HCASE (hyperproductive) and CASEP (plasmid mediated (See Table 2) Table 2 represents the list of AmpC (Ambler class C cephalosporinases) positive clinical strains tested with the HMRZ-86 and the CF3 (β)/4-cyanophenyl (R) [formula (I)] compounds.
Colonies from 30 AmpC positive clinical strains collected from solid culture medium were diluted in a standard TPTZ buffer. […] A negative clinical strain and an positive one (CTX-M) were analyzed as […].

KPC-3 = KPC-3 (Klebsiella pneumoniae, UniProt Q9F663, H272Y); assay: Reactivity with recombinant enzyme, amperometric; format: biochemical; conditions: class A carbapenemase, protein; CF3 compound 2.4 mM, HMRZ-86 1.2 mM; 10 minutes at 37° C.

SMILES	detection (oxidation current) [1]	detection (oxidation current) [2]	time of first signs of degradation [3] [weeks]	reactivity (detection) (IMP-3)	reactivity (detection) (OXA-163)	reactivity (detection) (CTX-M-15)	reactivity (detection) (KPC-33)	reactivity (detection) (OXA-40)	reactivity (detection) (OXA-213)	reactivity (detection) (VIM-5)	reactivity (detection) (CTX-M-25)	reactivity (detection) (IMP-31)	AmpC positive clinical strains detected as positive ([4]; substrate 2.4 mM)	reactivity (detection) (KPC-3)	degradation ([3]; 4° C., after 1 day)	degradation ([3]; 20° C., after 1 week) [%]	degradation ([3]; 20° C., after 18 weeks)	degradation ([3]; 20° C., after 1 day) [%]	degradation over time ([3]; temperatures between 4° C. and 20° C.)	AmpC positive clinical strains detected as positive ([4]; HMRZ-86 1.2 mM) [%]
N#Cc1ccc(C=CC2=C(C(=O)O)N3C(=O)C(NC(=O)C(F)(F)F)C3SC2)cc1 (centres unmarked) [CF3]	do not detect	capable of detecting	1	Detected	Detected	Detected	Detected	Detected	Detected	Detected	Detected	Detected	All	Detected	–	–	–	–	–	–
CC(C)(ON=C(C(=O)N[C@@H]1C(=O)N2C(C(=O)O)=C(C=Cc3ccc([N+](=O)[O-])cc3[N+](=O)[O-])CS[C@H]12)c1csc(N)n1)C(=O)O.O=C(O)C(F)(F)F [HMRZ-86, reference compound]	do not detect	capable of detecting	–	Detected	Detected	Detected	Detected	Not detected	Not detected	Detected	Detected	Detected	–	Detected	over 50%	~60	over 90%	~60	significant degradation over time	53.3
